In ChEMBL document CHEMBL5046278, “Synthesis and Evaluation of Novel Tetrahydronaphthyridine CXCR4 Antagonists with Improved Drug-like Profiles” (J Med Chem, 2022):

Legend:
[1] = target: T1, Alpha-2A adrenergic receptor (Homo sapiens, UniProt P08913); test: Inhibition of alpha 2A adrenergic receptor (unknown origin)
T1 sequence (P08913 whole entry): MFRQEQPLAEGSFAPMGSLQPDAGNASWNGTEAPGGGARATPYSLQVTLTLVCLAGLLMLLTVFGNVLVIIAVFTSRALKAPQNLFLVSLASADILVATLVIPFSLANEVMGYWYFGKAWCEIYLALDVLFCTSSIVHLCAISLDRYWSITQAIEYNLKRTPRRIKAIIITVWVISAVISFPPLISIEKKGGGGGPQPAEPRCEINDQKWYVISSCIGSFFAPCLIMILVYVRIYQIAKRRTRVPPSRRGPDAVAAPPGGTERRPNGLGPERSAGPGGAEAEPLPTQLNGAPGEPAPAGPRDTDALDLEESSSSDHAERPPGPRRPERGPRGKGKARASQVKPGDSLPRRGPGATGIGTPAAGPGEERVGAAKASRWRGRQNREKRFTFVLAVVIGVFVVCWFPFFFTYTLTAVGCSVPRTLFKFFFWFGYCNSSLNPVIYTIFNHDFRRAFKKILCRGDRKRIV

[2] = Permeability of compound at pH 5.5 incubated for 4 hrs by PAMPA assay; format: ADME; conditions: read-out: permeability
[3] = target: T2, Muscarinic acetylcholine receptor M2 (Homo sapiens, UniProt P08172); test: Inhibition of M2 mAChR receptor (unknown origin)
T2 sequence (P08172 whole entry): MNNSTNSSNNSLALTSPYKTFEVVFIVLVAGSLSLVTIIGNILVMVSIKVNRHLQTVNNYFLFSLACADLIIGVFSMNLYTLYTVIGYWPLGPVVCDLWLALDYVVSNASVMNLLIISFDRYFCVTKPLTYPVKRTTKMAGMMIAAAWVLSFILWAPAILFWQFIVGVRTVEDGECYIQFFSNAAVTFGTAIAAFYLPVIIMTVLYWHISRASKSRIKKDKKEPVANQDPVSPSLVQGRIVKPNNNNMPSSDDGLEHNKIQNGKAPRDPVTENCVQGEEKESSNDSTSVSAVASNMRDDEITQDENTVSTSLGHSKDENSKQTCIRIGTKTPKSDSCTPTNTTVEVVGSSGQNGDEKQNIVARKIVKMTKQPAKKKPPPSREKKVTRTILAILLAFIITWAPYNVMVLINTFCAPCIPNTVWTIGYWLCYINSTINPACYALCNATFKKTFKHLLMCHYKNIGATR

[4] = target: Cytochrome P450 2D6 (Homo sapiens, UniProt P10635); test: Inhibition of recombinant human CYP2D6 using AMMC as substrate preincubated for 30 mins followed by substrate addition measured after 45 mins by fluorescence based assay; format: ADME
Sequence of Cytochrome P450 2D6 (P10635 whole entry): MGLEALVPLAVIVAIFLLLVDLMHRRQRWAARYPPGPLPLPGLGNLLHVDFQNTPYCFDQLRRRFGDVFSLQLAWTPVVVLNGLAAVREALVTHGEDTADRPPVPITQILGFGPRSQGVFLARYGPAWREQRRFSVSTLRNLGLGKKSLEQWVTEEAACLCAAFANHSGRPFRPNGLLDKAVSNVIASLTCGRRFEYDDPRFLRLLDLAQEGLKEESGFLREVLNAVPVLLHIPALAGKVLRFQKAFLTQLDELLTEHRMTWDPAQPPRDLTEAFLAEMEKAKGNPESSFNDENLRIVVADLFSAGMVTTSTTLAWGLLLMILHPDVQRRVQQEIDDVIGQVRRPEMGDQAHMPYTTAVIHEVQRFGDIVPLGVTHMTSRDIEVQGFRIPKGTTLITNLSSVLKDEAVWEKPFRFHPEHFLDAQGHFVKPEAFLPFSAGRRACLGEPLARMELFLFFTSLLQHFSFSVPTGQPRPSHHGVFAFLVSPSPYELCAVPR

[5] = Antagonist activity at human CXCR4 receptor expressed in CCRF-CEM cells assessed as inhibition of CXCL12-induced calcium release by calcium flux assay; format: cell-based
[6] = Permeability of compound at pH 7.4 incubated for 4 hrs by PAMPA assay; format: ADME; conditions: read-out: permeability
[7] = target: Voltage-gated inwardly rectifying potassium channel KCNH2 (Homo sapiens, UniProt Q12809); test: Inhibition of human ERG by [3H]]Astemizole binding assay; format: toxicity
Sequence of Voltage-gated inwardly rectifying potassium channel KCNH2 (Q12809 whole entry): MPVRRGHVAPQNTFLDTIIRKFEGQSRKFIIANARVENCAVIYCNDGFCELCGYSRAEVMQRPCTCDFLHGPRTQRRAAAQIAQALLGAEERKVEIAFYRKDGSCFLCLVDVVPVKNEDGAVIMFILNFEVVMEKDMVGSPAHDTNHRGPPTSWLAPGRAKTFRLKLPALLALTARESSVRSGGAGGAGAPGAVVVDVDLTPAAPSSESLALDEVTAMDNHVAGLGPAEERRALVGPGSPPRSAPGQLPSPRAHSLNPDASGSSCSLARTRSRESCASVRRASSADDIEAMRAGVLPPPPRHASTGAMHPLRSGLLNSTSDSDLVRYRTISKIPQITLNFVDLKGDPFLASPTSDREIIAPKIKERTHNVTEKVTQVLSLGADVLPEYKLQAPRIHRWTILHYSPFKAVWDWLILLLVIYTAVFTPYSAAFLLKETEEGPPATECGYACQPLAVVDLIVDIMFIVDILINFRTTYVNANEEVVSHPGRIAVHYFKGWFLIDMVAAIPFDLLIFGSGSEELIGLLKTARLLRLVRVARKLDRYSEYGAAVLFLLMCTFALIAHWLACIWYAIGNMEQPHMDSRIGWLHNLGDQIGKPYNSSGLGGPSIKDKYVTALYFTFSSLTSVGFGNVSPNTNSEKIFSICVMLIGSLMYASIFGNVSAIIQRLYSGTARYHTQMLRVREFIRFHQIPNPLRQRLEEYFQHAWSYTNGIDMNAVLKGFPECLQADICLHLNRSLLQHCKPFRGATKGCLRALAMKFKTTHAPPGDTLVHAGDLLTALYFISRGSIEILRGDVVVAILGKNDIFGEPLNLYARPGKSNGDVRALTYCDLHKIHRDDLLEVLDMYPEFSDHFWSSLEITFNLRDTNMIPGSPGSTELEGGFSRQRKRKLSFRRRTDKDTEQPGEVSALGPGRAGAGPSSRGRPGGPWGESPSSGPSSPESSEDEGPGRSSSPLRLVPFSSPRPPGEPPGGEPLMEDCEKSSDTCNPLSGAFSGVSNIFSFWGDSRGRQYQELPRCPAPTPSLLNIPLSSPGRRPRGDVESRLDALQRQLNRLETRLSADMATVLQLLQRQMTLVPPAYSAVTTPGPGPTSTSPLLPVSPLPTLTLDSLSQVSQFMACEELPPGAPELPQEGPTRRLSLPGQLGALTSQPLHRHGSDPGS

[8] = target: D(2) dopamine receptor (Homo sapiens, UniProt P14416); test: Inhibition of dopamine D2 receptor (unknown origin)
Sequence of D(2) dopamine receptor (P14416 whole entry): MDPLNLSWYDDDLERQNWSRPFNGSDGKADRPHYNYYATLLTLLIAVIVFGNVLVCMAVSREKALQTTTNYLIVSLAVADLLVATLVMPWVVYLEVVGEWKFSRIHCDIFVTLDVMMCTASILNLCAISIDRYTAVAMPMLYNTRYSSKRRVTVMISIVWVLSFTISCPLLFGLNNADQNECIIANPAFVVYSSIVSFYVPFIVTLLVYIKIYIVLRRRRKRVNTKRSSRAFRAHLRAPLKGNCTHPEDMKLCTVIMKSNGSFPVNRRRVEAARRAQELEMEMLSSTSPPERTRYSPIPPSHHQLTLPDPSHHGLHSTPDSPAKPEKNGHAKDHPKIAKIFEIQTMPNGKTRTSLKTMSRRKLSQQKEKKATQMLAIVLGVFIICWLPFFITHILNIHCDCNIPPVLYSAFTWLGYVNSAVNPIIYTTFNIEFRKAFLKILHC

[9] = target: Neuronal acetylcholine receptor subunit alpha-7 (Homo sapiens, UniProt P36544); test: Inhibition of alpha7 nicotinic acetylcholine receptor (unknown origin)
Sequence of Neuronal acetylcholine receptor subunit alpha-7 (P36544 whole entry): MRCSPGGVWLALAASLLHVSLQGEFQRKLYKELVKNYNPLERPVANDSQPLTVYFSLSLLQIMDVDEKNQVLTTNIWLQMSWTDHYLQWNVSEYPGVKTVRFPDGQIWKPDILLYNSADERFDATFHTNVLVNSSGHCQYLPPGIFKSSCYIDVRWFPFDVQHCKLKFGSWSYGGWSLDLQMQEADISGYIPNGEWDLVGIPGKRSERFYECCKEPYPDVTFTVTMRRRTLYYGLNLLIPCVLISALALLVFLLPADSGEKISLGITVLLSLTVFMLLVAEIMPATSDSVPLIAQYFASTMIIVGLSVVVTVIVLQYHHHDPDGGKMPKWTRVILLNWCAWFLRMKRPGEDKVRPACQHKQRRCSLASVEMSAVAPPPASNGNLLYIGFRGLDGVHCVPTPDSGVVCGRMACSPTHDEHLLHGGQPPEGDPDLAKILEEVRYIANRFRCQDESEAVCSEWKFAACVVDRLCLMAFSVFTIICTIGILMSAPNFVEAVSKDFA

[10] = target: Mu-type opioid receptor (Homo sapiens, UniProt P35372); test: Inhibition of mu opioid receptor (unknown origin)
Sequence of Mu-type opioid receptor (P35372 whole entry): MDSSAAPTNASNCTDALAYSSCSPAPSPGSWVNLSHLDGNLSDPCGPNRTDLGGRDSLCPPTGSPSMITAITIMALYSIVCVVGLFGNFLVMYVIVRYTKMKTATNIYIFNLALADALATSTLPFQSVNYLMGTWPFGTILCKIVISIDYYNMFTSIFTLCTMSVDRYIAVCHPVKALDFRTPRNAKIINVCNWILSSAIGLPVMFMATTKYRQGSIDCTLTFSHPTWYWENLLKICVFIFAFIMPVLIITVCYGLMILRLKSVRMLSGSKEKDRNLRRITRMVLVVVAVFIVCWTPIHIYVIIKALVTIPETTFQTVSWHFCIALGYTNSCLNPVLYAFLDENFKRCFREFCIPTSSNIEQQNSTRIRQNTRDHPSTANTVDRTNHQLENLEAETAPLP

[11] = Metabolic stability in rat liver microsomes assessed compound remaining measured after 10 mins in presence of NADPH; format: ADME, Microsome; conditions: read-out: Stability
[12] = target: Kappa-type opioid receptor (Homo sapiens, UniProt P41145); test: Inhibition of kappa opioid receptor (unknown origin)
Sequence of Kappa-type opioid receptor (P41145 whole entry): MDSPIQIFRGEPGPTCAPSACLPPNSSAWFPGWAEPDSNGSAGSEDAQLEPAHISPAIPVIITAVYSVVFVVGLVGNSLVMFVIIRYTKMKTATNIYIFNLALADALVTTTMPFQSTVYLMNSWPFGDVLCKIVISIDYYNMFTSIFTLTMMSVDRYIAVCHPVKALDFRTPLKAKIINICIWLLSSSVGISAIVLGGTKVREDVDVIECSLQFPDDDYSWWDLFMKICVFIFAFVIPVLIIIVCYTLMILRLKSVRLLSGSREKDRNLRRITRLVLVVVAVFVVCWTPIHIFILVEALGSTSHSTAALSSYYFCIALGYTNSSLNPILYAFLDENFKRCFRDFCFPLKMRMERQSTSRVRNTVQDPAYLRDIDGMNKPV

[13] = target: T3, Alpha-2C adrenergic receptor (Homo sapiens, UniProt P18825); test: Inhibition of alpha 2C adrenergic receptor (unknown origin)
T3 sequence (P18825 whole entry): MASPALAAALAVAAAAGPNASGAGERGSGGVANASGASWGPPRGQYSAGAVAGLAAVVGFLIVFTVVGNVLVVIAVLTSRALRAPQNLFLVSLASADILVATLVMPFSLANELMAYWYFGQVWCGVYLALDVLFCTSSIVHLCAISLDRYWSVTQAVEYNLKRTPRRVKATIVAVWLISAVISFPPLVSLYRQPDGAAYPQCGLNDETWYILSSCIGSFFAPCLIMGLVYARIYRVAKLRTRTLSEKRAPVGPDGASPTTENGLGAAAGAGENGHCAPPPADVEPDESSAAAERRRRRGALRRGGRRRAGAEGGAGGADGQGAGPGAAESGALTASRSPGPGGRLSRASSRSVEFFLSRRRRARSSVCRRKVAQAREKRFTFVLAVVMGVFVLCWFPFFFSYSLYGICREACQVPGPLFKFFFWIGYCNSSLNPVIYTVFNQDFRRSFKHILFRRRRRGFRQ

[14] = Metabolic stability in human liver microsomes assessed compound remaining measured after 10 mins in presence of NADPH; format: ADME, Microsome; conditions: read-out: Stability
[15] = Metabolic stability in mouse liver microsomes assessed compound remaining measured after 10 mins in presence of NADPH; format: ADME, Microsome; conditions: read-out: Stability
[16] = Antagonist activity at mAChR (unknown origin) expressed in CCRF-CEM cells assessed as inhibition of calcium release by calcium flux assay; format: cell-based; conditions: Homo sapiens

| SMILES | IC50 [1] | Papp at 4 h [2] | IC50 [3] | IC50 [4] | IC50 [5] | Papp at 4 h [6] | IC50 [7] | IC50 [8] | IC50 [9] | IC50 [10] | remaining at 10 min [11] | IC50 [12] | IC50 [13] | remaining at 10 min [14] | remaining at 10 min [15] | IC50 [16] |
| --- | --- | --- | --- | --- | --- | --- | --- | --- | --- | --- | --- | --- | --- | --- | --- | --- |
| NCCCCN(C[C@H]1Cc2ncccc2CN1)[C@H]1CCCc2cccnc21 | 11 µM | 1.7 ×10⁻⁶ cm/s | 8.7 µM | 12 µM | 0.011 µM | 1.4 ×10⁻⁶ cm/s | 5.8 µM | 9.4 µM | 1.7 µM | > 30 µM | 64% | 1.1 µM | 13 µM | 100% | 86% |  |
| NCCCCN(C[C@@H]1Cc2ncccc2CN1)[C@H]1CCCc2cccnc21 |  | 0.2 ×10⁻⁶ cm/s |  | 9.7 µM | 0.55 µM | 0.7 ×10⁻⁶ cm/s |  |  |  |  | 55% |  |  | 98% | 75% |  |
| NCCCCN(C[C@@H]1Cc2nccnc2CN1)[C@H]1CCCc2cccnc21 |  | 0.2 ×10⁻⁶ cm/s |  | > 20 µM | 0.13 µM | 0.2 ×10⁻⁶ cm/s |  |  |  |  | 67% |  |  | 87% | 73% |  |
| CCN(CC)CCCCN(C[C@H]1Cc2ncccc2CN1)[C@H]1CCCc2cccnc21 |  | 0.3 ×10⁻⁶ cm/s |  | 10 µM | 0.39 µM | 24 ×10⁻⁶ cm/s |  |  |  |  | 6% |  |  | 80% | 1% | > 17 µM |
| NCCCCN(C[C@@H]1Cc2cccnc2CN1)[C@H]1CCCc2cccnc21 |  |  |  | 4.4 µM | 0.22 µM | 7.7 ×10⁻⁶ cm/s |  |  |  |  | 37% |  |  | 92% | 25% |  |
| NC(=O)NCCCCN(C[C@H]1Cc2ncccc2CN1)[C@H]1CCCc2cccnc21 |  | 0.7 ×10⁻⁶ cm/s |  | 13 µM | 0.93 µM | 0.2 ×10⁻⁶ cm/s |  |  |  |  | 1% |  |  | 91% | 32% | > 17 µM |
| NCCCCN(C[C@H]1Cc2ccccc2CN1)[C@H]1CCCc2cccnc21 |  | 0.6 ×10⁻⁶ cm/s |  |  |  |  |  | 5.7 µM | > 30 µM |  |  | 1.6 µM | 23 µM |  |  | < 30 µM |
| NC/C=C/CN(C[C@H]1Cc2ncccc2CN1)[C@H]1CCCc2cccnc21 |  | 0.2 ×10⁻⁶ cm/s |  | 0.7 µM | 0.15 µM | 1.5 ×10⁻⁶ cm/s |  |  |  |  | 11% |  |  | 85% | 37% | 28 µM |
| NC(=O)NC/C=C/CN(C[C@H]1Cc2ncccc2CN1)[C@H]1CCCc2cccnc21 |  | 0.6 ×10⁻⁶ cm/s |  | 18 µM | 0.43 µM | 0.2 ×10⁻⁶ cm/s |  |  |  |  | 1% |  |  | 93% | 19% | > 17 µM |
| NCc1ccc(CN(C[C@H]2Cc3ncccc3CN2)[C@H]2CCCc3cccnc32)cc1 |  | 2 ×10⁻⁶ cm/s |  | 2.7 µM | 0.11 µM | 6.9 ×10⁻⁶ cm/s |  |  |  |  | 78% |  |  | 100% | 53% | 26 µM |
| FC1(F)CCC(NCCCCN(C[C@H]2Cc3ncccc3CN2)[C@H]2CCCc3cccnc32)CC1 |  |  |  | 15 µM | 0.029 µM | 5.2 ×10⁻⁶ cm/s |  |  |  |  | 10% |  |  | 88% | 47% | 31 µM |
